These results are taken from patent US11154477B2, “Use of alkanolamine alkylamides as humectants” (Akzo Nobel Chemicals International B.V., priority 2016, dated 2021).

In data set [1] the test system is skin (inner forearm of each panelist). The experiment in a line: Corneometer measurement of skin moisture after a single application of gel formulation. The class given is in vivo. The conditions noted are these: 5 wt % gel, average of eight panelists. As for the experimental part:
To prepare a gel formulation, deionized water was added to a 4 oz. tall jar that was set up for mixing using an overhead mixer and a jiffy blade. The water was then mixed at a speed that created a good vortex that nearly reached the bottom of the jar (e.g., about 700 rpm). To this, Carbopol® 940 (cross-linked polyacrylate polymer available from Lubrizol, […], Ohio) was slowly added and mixed for at least 15 minutes until homogeneous. Triethanolamine (TEA) was then added and the mixing speed was adjusted overhead to about 200 rpm and continued mixing for about 10 minutes (e.g., product viscosity increased). To this mixture, 5 wt % of the sample compound in its pure form (or hydroxyethyl urea or glycerol control) was added followed by 0.5 wt % GlydantTM PlusTM (a preservative available from Lonza, Basel, Switzerland) and the remaining, balance water. Mixing was continued at 200 rpm for about 15-20 minutes. The mixture was then removed from the mixer and the final pH was measured. […] Moisture levels were measured using a Corneometer® CM 825 (available from CK Industries) prior to and at various time intervals after the sample application at a temperature of 22° C. and relative humidity of 50%, wherein the corneometer values recorded are the difference between the corneometer reading at a given time and the initial corneometer reading at 0 hours, which is set at zero. […]

Data set [2] can be described thus: Dynamic Vapor Sorption (DVS) measurement of water absorption by humectants. The data set is classed as physicochemical. Particulars: for Percentage of water absorbed based on weight of the tested compound: 25° C., equilibrium. As for the experimental part: Dynamic Vapor Sorption (DVS) technique was used to measure the moisture intake of a specific compound at certain humidity level. A DVS Intrinsic instrument manufactured by Surface Measurement Systems UK Ltd. (London, United Kingdom) was used to measure DVS. The following measurement procedure was used to determine the water vapor absorption of a specific compound.
A uniform aqueous solution of a specific, target compound was made at 50% concentration. About 1.2 to 1.6 mg of the prepared aqueous solution was added to DVS instrument at zero tare balance. The temperature was then set at 25° C., and the measurement was performed at various humidity levels. The first measurement was performed at a humidity of 90% to ensure that the sample absorbs the highest level of water in order to minimize the mass transfer barrier during the evaporation process. The typical humidity measurements were then taken at 50%, 40%, 30%, 20%, 10%, and 0% humidity. The dynamics of water absorption was determined by the weight change per minute. If weight change per minute was less than 0.005% of the sample weight, it was deemed that water absorption had reached the equilibrium point. The equilibrium weight at 0% humidity is the sample weight by itself. Thus, the percentage of equilibrium water absorption at various humidity levels was calculated.
Using the above procedure, DVS was used to evaluate water absorption for DGA Acetamide as compared to hydroxyethyl urea and glycerol at different humidity levels.

Turning to `CC(=O)NCCOCCO` [DGA acetamide, N-acetyl diglycolamine], in data set [1] (at 24 hours), the “humectance performance (corneometer) versus glycerol” value is recorded as “same as glycerol”. Further, the “corneometer readings versus control (water) formulation” value in data set [1] (entire time range tested (24 hours), 22° C., 50% relative humidity) is “superior to the control formulation”. Also, the “Percentage of water absorbed based on weight of the tested compound” value is recorded as 2.6% in data set [2] (10% rel. humidity); 5.9% in data set [2] (20% rel. humidity); 9.9% in data set [2] (30% rel. humidity); 15.3% in data set [2] (40% rel. humidity); 26.9% in data set [2] (50% rel. humidity). Moreover, the “water absorption capability (comparison in words)” value is “on par with glycerol” in data set [2] (50% relative humidity); “on par with that for hydroxyethyl urea” in data set [2] (relative humidity levels of 10%, 20% 30%, and 40%).
In the case of `OCC(O)CO` [Glycerol, glycerol], the “Percentage of water absorbed based on weight of the tested compound” value in data set [2] (10% rel. humidity) is on record as 4.6%; in data set [2] (20% rel. humidity) it was 8.6%; in data set [2] (30% rel. humidity), 15.9%; in data set [2] (40% rel. humidity), 23.3%; in data set [2] (50% rel. humidity), 27.7%.
Taken in the same sequence, the figures for `NC(=O)NCCO` [Hydroxyethyl urea, hydroxyethyl urea] were 2.4%, 5.4%, 9.2%, 14.1% and 19.7%.
